In ChEMBL document CHEMBL4616589, “Exploring structure-promiscuity relationships using dual-site promiscuity cliffs and corresponding single-site analogs” (Bioorg Med Chem, 2020):

Legend:
[1] = biological target: Vascular endothelial growth factor receptor 1 (Homo sapiens, UniProt P17948); assay: Inhibition of VEGFR1 (unknown origin)
[2] = biological target: Tyrosine-protein kinase ABL1 (Homo sapiens, UniProt P00519); assay: Inhibition of ABL1 (unknown origin)
Tyrosine-protein kinase ABL1, sequence (P00519 whole entry): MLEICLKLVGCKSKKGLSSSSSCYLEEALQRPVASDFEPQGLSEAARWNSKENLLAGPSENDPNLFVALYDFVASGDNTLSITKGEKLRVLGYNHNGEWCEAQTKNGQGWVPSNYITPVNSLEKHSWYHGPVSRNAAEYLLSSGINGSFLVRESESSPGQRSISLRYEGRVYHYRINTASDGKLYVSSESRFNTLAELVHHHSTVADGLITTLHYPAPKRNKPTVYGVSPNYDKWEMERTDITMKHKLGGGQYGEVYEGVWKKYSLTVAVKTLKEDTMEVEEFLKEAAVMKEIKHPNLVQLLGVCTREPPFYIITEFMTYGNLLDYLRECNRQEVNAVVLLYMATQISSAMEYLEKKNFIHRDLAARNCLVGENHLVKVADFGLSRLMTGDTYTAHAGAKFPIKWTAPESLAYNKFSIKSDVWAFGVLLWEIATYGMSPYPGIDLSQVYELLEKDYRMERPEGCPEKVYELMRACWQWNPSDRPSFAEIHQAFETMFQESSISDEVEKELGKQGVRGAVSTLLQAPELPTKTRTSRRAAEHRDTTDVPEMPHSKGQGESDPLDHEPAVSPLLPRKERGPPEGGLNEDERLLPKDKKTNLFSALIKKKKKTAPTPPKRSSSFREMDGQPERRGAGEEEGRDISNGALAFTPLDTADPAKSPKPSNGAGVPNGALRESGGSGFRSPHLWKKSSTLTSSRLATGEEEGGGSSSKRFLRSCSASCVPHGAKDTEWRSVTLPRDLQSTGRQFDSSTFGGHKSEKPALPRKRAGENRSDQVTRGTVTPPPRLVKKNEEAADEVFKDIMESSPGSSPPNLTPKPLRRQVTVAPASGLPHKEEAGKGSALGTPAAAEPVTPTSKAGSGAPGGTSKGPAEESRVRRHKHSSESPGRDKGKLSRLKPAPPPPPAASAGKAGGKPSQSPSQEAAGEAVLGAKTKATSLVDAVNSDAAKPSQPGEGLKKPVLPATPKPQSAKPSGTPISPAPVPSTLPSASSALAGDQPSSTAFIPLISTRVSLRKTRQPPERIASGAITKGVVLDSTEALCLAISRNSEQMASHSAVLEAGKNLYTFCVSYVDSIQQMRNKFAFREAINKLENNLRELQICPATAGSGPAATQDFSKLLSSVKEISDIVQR

Vascular endothelial growth factor receptor 1, sequence (P17948 whole entry): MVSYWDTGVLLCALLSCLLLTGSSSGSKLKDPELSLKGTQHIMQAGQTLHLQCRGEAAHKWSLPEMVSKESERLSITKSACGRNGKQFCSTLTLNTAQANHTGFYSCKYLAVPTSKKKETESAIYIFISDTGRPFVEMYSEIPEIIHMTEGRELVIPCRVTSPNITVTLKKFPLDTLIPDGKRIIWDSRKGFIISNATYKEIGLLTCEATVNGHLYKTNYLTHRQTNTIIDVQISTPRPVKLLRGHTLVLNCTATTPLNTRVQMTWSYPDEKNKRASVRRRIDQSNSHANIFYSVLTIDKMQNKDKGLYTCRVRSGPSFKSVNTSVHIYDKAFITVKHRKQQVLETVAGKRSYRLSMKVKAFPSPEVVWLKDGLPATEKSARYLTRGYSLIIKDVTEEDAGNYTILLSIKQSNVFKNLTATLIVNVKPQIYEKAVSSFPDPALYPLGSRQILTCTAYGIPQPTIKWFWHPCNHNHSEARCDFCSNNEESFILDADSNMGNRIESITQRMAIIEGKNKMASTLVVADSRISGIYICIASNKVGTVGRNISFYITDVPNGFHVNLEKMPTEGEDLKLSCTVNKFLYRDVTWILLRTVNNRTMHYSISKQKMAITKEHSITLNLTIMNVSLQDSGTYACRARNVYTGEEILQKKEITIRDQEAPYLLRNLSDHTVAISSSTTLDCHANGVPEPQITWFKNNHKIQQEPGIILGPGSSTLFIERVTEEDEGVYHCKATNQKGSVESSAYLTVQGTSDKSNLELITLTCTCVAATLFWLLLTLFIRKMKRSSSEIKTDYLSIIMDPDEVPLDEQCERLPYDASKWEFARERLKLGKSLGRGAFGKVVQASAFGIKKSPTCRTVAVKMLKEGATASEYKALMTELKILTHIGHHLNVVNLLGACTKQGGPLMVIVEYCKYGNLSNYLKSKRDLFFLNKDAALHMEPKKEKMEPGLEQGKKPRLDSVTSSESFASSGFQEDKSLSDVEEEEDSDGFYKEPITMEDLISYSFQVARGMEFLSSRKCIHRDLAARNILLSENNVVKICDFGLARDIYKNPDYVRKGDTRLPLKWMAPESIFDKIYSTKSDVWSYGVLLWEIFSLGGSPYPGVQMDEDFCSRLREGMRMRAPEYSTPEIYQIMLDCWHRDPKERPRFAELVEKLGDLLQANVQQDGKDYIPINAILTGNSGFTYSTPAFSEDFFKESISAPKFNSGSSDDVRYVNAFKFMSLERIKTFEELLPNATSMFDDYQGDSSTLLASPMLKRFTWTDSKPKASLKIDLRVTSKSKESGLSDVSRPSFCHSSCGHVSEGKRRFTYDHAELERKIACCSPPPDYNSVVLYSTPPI

Structure (SMILES) | IC50 [1] [nM] | Ki [2] [nM]
ClC(Cn1ncc2c(NCc3ccccc3)ncnc21)c1ccccc1 (configuration not stated) | 1000 | –
CCCCNc1ncnc2c1cnn2CC(Cl)c1ccccc1 (configuration not stated) | – | 2000
